Assay results reported in patent US20240216395A1, “19-NOR C3,3-DISUBSTITUTED C21 -N-PYRAZOLYL STEROID FOR USE IN TREATING MAJOR DEPRESSIVE DISORDER AND […]” (priority 2021, published 2024).
Values joined by “and” are separate entries in the source; they are usually repeats but may differ in a detail not shown here. Equal values may be shown once.

Assays:
[1] = system: synaptic and extrasynaptic GABAA receptors; conditions: in vitro; cited from earlier work
[2] = system: adult subjects with major depressive disorder (MDD); assay: Phase 3 MDD study (NCT04442490): safety and tolerability (TEAEs, C-SSRS, PWC-20); format: in vivo, human
Procedure: • Incidence and severity of adverse events/serious adverse events • Changes from baseline in clinical laboratory measures, vital signs, and electrocardiograms (ECGs) • Suicidal ideation and behavior using the Columbia Suicide Severity Rating Scale (C-SSRS) • Potential withdrawal symptoms using the 20-item Physician Withdrawal Checklist (PWC-20)
Safety and tolerability of study drug was evaluated by incidence of adverse events/serious adverse events, vital signs, clinical laboratory evaluations, and 12-lead ECG.
Suicidality was monitored by the C-SSRS. Potential withdrawal symptoms after discontinuation of Compound (1) was assessed using the PWC-20.
Safety and tolerability were evaluated by incidence and severity of adverse events (AEs), serious adverse events (SAEs), changes from baseline in clinical laboratory evaluations, vital signs, and 12-lead electrocardiography. Suicidality was monitored by the Columbia Suicide Severity Rating Scale (C-SSRS). The Physician Withdrawal Checklist-20 total score (PWC-20TS) was used to monitor for the presence of potential withdrawal symptoms following discontinuation of Compound (1)-50 mg.

[3] = aqueous solution formulation (Hoffmann 2020); cited from earlier work
patients with MDD = assay: Phase 2 clinical trial of Compound (1) 30 mg in MDD (NCT03000530): TEAEs; format: in vivo, human
Source text: The study design and results, if applicable, of the clinical trials identified by the NCT numbers are each incorporated by reference herein in its entirety.
The majority of patients receiving Compound (1) and experiencing a TEAE reported TEAEs mild and moderate in severity: clinical trial of Example 4 94%, Phase 2 clinical trial conducted by Applicant 100%, previous Phase 3 clinical trial conducted by Applicant 98%, and clinical trial of Example 1 95.0%.

[4] = system: nondependent, recreational users of CNS depressants; assay: Abuse potential main study, treatment phase: TEAEs; format: in vivo, human
Procedure: The main study consisted of 4 phases (FIG. 30B). The screening phase was a 1-day visit occurring within 21 days of the beginning of the qualification phase. The qualification phase was a 4-day, inpatient period to ensure participants could discriminate between alprazolam (active comparator) and placebo, and that they could tolerate the alprazolam 2-mg doses. Participants received single-oral doses of alprazolam 2 mg and placebo in a crossover manner 24 hours apart, and if they could discriminate between the two medications, they continued to the treatment phase. The treatment phase was a double-blind, active- and placebo-controlled, 6-way crossover design where participants were randomized equally to a single oral dose of 1 of 6 treatments: placebo, alprazolam (1.5 and 3 mg), and Compound (1) (30, 60, and 90 mg). The Compound (1) doses were based on the results from the first part, dose selection, and treatments were separated by 7 days. The follow-up phase was a 1-day visit occurring 7 (2) days after the treatment phase.
Safety and tolerability endpoints included the frequency and severity of AEs and SAEs, the change from baseline in clinical laboratory assessments, vital signs, and ECG, and suicidality assessed by the Columbia-Suicide Severity Rating Scale (C-SSRS).
The dose selection safety set included all participants who received 1 dose of Compound (1). The main study qualification safety set included all participants who received ≥1 dose of alprazolam. For the treatment phase, the randomized set included all participants who were randomized and the safety set included all participants who received ≥1 dose of Compound (1) or alprazolam. The completer set included all participants in the randomized set who completed all treatment periods, had sufficient data for evaluation of the primary endpoint, and had ≥1 observation within 2 hours of Tmax for each treatment for Drug Liking VAS scores. […] The PK set included all participants in the treatment phase who received 1 dose of Compound (1) and had 1 PK sample after dosing.

[5] = 50 mg (n = 268), through Day 42
[6] = treatment phase, Compound (1) 30 mg (n = 65)
[7] = treatment phase, Compound (1) 60 mg (n = 66)
[8] = treatment phase, Compound (1) 90 mg (n = 67)

## C[C@@]1(O)CC[C@H]2[C@H](CC[C@@H]3[C@@H]2CC[C@]2(C)[C@@H](C(=O)Cn4cc(C#N)cn4)CC[C@@H]32)C1 [Compound (1), 1-(2-((3R,5R,8R,9R,10S,13S,14S,17S)-3-hydroxy-3,13-dimethylhexadecahydro-1H-cyclopenta[a]phenanthren-17-yl)-2-oxoethyl)-1H-pyrazole-4-carbonitrile]
[1]
  GABAA receptor binding and current potentiation: bind to both synaptic and extrasynaptic GABAA receptors, potentiating both phasic and tonic currents
[2]; 50 mg
  AEs of loss of consciousness, weight gain, sexual dysfunction, euphoria: no loss of consciousness, weight gain, sexual dysfunction, or euphoria reported
  Overall tolerability: generally well-tolerated
[2]; [5]
  TEAE Alanine aminotransferase increased: 3 (1.1%) n (%)
  TEAE Dry mouth: 10 (3.7%) n (%)
  TEAE Tremor: 8 (3.0%) n (%)
[2]; 50 mg, ADT use at baseline=Yes (N = 79)
  Any TEAE: 50 (63.3) n (%)
[2]; 50 mg, ADT=Yes (N = 79)
  TEAE Abnormal dreams: 2 (2.5) n (%)
  TEAE Alanine aminotransferase increased: 2 (2.5) n (%)
  TEAE Diarrhea: 4 (5.1) n (%)
  TEAE Disturbance in attention: 0 n (%)
  TEAE Dizziness: 10 (12.7) n (%)
  TEAE Dry mouth: 4 (5.1) n (%)
  TEAE Flatulence: 0 n (%)
  TEAE Gastroenteritis: 2 (2.5) n (%)
  TEAE Headache: 9 (11.4) n (%)
  TEAE Insomnia: 2 (2.5) n (%)
  TEAE Nausea: 1 (1.3) n (%)
  TEAE Restlessness: 2 (2.5) n (%)
  TEAE Sedation: 7 (8.9) n (%)
  TEAE Somnolence: 9 (11.4) n (%)
  TEAE Suicidal ideation: 3 (3.8) n (%)
  TEAE Tremor: 3 (3.8) n (%)
  TEAE Upper respiratory tract infection: 2 (2.5) n (%)
  TEAE Urinary tract infection: 2 (2.5) n (%)
[2]; 50 mg, Day 8 (N = 255)
  C-SSRS: No suicidal ideation/behavior: 237 (92.9) n (%)
  C-SSRS: Suicidal behavior: 0 n (%)
  C-SSRS: Suicidal ideation: 18 (7.1) n (%)
[2]; 50 mg, Day 15 (N = 248)
  C-SSRS: No suicidal ideation/behavior: 229 (92.3) n (%)
  C-SSRS: Suicidal behavior: 0 n (%)
  C-SSRS: Suicidal ideation: 19 (7.7) n (%)
[2]; 50 mg, Day 18
  PWC-20 total score change from first assessment (CFFA), mean (SD): −1.2 (4.3) and −1.2 (4.32)
[2]; 50 mg, Day 18 or 21
  Withdrawal symptoms by PWC-20: No signals for withdrawal symptoms
[2]; 50 mg, Day 21
  PWC-20 total score change from first assessment (CFFA), mean (SD): −0.3 (4.6) and −0.3 (4.37)
[2]; 50 mg, Day 42 (N = 240)
  C-SSRS: No suicidal ideation/behavior: 223 (92.9) n (%)
  C-SSRS: Suicidal behavior: 0 n (%)
  C-SSRS: Suicidal ideation: 17 (7.1) n (%)
[2]; 50 mg, throughout the study
  Suicidal ideation/behavior signal by C-SSRS: No signal of increased suicidal ideation/behavior
[2]; clinical trial of Example 1
  Patients with a TEAE whose TEAEs were mild and moderate in severity: 95.0%
[3]
  T½ values reported by a prior study: 14 to 19 h
Patients with MDD; 30 mg (N = 45)
  Diarrhea: 0 n (%)
  URTI: 0 n (%)
Patients with MDD; Phase 2 clinical trial
  Patients with a TEAE whose TEAEs were mild and moderate in severity: 100%
[4]; 30, 60, 90 mg single doses
  Severe TEAEs and deaths: no reported severe TEAEs nor deaths
[4]; [6]
  Back pain (TEAE): 0 n
  Confusional state (TEAE): 0 n
  Diarrhea (TEAE): 0 n
  Feeling drunk (TEAE): 0 n
  Fine motor skill dysfunction (TEAE): 0 n
  Hiccups (TEAE): 0 n
  Irritability (TEAE): 0 n
  Lacrimation increased (TEAE): 0 n
  Swelling face (TEAE): 0 n
  Tremor (TEAE): 0 n
  Upper respiratory tract infection (TEAE): 0 n
[4]; [7]
  Back pain (TEAE): 0 n
  Confusional state (TEAE): 0 n
  Fine motor skill dysfunction (TEAE): 0 n
  Hiccups (TEAE): 0 n
  Irritability (TEAE): 0 n
  Lacrimation increased (TEAE): 0 n
  Swelling face (TEAE): 0 n
  Upper respiratory tract infection (TEAE): 0 n
[4]; [8]
  Back pain (TEAE): 0 n
  Diarrhea (TEAE): 0 n
  Hiccups (TEAE): 0 n
  Lacrimation increased (TEAE): 0 n
  Upper respiratory tract infection (TEAE): 0 n
